The record followed here is ChEMBL document CHEMBL3244391, “Antiviral activity of aliphatic nucleoside analogues: structure-function relationship” (1979).

Bounds are passed on as bounds.

This assay deals with Vaccinia virus. Nature of the assay: Antiviral activity against Vaccinia virus infected in rabbit primary kidney cells assessed as inhibition of viral cytopathogenicity after 3 days. Type of assay: functional, Orthopoxvirus vaccinia.
For the compound `CC(C)(C)C(=O)OCC(O)Cn1cnc2c(N)ncnc21` (racemic), the MID is 300 µg/mL.

As to `O=c1cnn(CC(O)CO)c(=O)[nH]1` (racemic), the MID is above 400 µg/mL.

On to `O=c1[nH]c(=O)n([C@H]2C[C@H](O)[C@@H](CO)O2)cc1I` [IDOXURIDINE], for which the MID was 0.1 µg/mL.

`Cc1cn(C[C@H](O)CO)c(=O)[nH]c1=O`: the MID was above 400 µg/mL.

As to `Nc1ncnc2c1ncn2CC(O)C(O)CO` (racemic), the MID was 400 µg/mL.

Take `OCC(O)Cn1cnc2c(S)ncnc21` (racemic): the MID is above 400 µg/mL.

With `Nc1ncnc2c1ncn2CC(O)CO` (racemic), the MID is 40 µg/mL.

On to `Nc1ncnc2c1ncn2C[C@@H](O)[C@H](O)CO`, for which the MID is above 400 µg/mL.

Consider `Nc1ccn([C@@H]2O[C@H](CO)[C@@H](O)[C@@H]2O)c(=O)n1` [CYTARABINE], for which the MID amounted to 0.02 µg/mL.

In the case of `Nc1ccn(CC(O)CO)c(=O)n1` (racemic), the MID was above 400 µg/mL.

Turning to `CC(C)(C)C(=O)OCC(Cn1cnc2c(N)ncnc21)OC(=O)C(C)(C)C` (racemic), the MID was 300 µg/mL.

Take `Cc1cn(C[C@@H](O)CO)c(=O)[nH]c1=O`: the MID was above 400 µg/mL.

In the case of `Nc1ncnc2c1nc(O)n2CC(O)CO` (racemic), the MID is above 400 µg/mL.

In the case of `O=c1ccn(CC(O)C(O)CO)c(=O)[nH]1` (racemic), the MID was above 400 µg/mL.

As to `O=c1ccn(C[C@H](O)CO)c(=O)[nH]1`, the MID was above 400 µg/mL.

As to `Nc1ncnc2c1ncn2C(CO)CO`, the MID was above 400 µg/mL.

Turning to `Nc1ncnc2c1ncn2CCO`, the MID is above 400 µg/mL.

With `COC(CO)Cn1cnc2c(N)ncnc21` (racemic), the MID was above 400 µg/mL.

On to `CNc1ncnc2c1ncn2CC(O)CO` (racemic), for which the MID is above 400 µg/mL.

With `Cc1c[nH]c(=O)n(C[C@H](O)CO)c1=O`, the MID is above 400 µg/mL.

For the compound `CSc1nc(N)c2ncn(CC(O)CO)c2n1` (racemic), the MID came to 400 µg/mL.

`Nc1ncnc2c1ncn2C[C@H](O)[C@H](O)CO`: the MID turned out to be 200 µg/mL.

For `[N-]=[N+]=NCC(Cn1cnc2c(N)ncnc21)N=[N+]=[N-]` (racemic), the MID worked out at 150 µg/mL.

On to `Nc1ncnc2c1ncn2CCC(O)CO` (racemic), for which the MID came to 100 µg/mL.

Take `Nc1ncnc2c1ncn2[C@@H]1O[C@H](CO)[C@@H](O)[C@@H]1O` [VIDARABINE]: the MID is 0.3 µg/mL.

For `Nc1nc(N)c2ncn(CC(O)CO)c2n1` (racemic), the MID is above 400 µg/mL.

As to `C[C@@H](O)[C@@H](O)Cn1cnc2c(N)ncnc21` (racemic), the MID was determined as 150 µg/mL.

On to `O=c1ccn(C[C@@H](O)[C@H](O)CO)c(=O)[nH]1`, for which the MID is above 400 µg/mL.

Regarding `Nc1ncnc2c1ncn2CC[C@H](O)CO`, the MID is 200 µg/mL.

In the case of `Nc1ncnc2c1ncn2C[C@H](O)CO` [(S)-DHPA], the MID was determined as 10 µg/mL.

Consider `NCCn1cnc2c(N)ncnc21`, for which the MID was above 400 µg/mL.

For `CCC(=O)OCC(Cn1cnc2c(N)ncnc21)OC(=O)CC` (racemic), the MID was above 400 µg/mL.

For the compound `CC(=O)OC[C@H](Cn1cnc2c(N)ncnc21)OC(C)=O`, the MID was above 400 µg/mL.

Take `COCC(Cn1cnc2c(N)ncnc21)OC` (racemic): the MID is above 400 µg/mL.

As for `Nc1c2ncn(CC(O)CO)c2nc[n+]1[O-]` (racemic), the MID was above 400 µg/mL.

Consider `Nc1ncnc2c1ncn2CCC(O)CCO` (racemic), for which the MID was above 400 µg/mL.

For `O=c1ccn(CCC(O)CCO)c(=O)[nH]1` (racemic), the MID is above 400 µg/mL.

As to `Nc1ncnc2c1nc(S)n2CC(O)CO` (racemic), the MID was above 400 µg/mL.

Regarding `CCCCCCCCCCCCCCCC(=O)OCC(O)Cn1cnc2c(N)ncnc21` (racemic), the MID worked out at 100 µg/mL.

`Nc1ncnc2c1ncn2C[C@@H](O)[C@@H](O)CO`: the MID was above 400 µg/mL.

Regarding `Nc1ncnc2c1nc(Br)n2CC(O)CO` (racemic), the MID was above 200 µg/mL.

In the case of `O=c1ccn(C[C@H](O)[C@H](O)CO)c(=O)[nH]1` (racemic), the MID was above 400 µg/mL.

With `NCC(N)Cn1cnc2c(N)ncnc21` (racemic), the MID is above 400 µg/mL.

For the compound `CC(O)Cn1cnc2c(N)ncnc21` (racemic), the MID was above 400 µg/mL.

For the compound `Nc1nc2c(ncn2CC(O)CO)c(=O)[nH]1` (racemic), the MID is above 400 µg/mL.

As for `Nc1ncnc2c1ncn2C[C@H](O)[C@@H](O)CO`, the MID was above 400 µg/mL.

`COCC(O)Cn1cnc2c(N)ncnc21` (racemic): the MID was above 400 µg/mL.

As for `NCC(O)Cn1cnc2c(N)ncnc21` (racemic), the MID stood at 400 µg/mL.

For the compound `Nc1ncnc2c1ncn2CC(N)CO` (racemic), the MID is above 400 µg/mL.

For `Nc1ncnc2c1ncn2CCCO`, the MID was 300 µg/mL.

For the compound `CN(C)c1ncnc2c1ncn2CC(O)CO` (racemic), the MID is above 400 µg/mL.

With `OC[C@@H](O)Cn1cnc2c(O)ncnc21`, the MID was above 400 µg/mL.

Take `[N-]=[N+]=NCC(O)Cn1cnc2c(N)ncnc21` (racemic): the MID is above 400 µg/mL.

Take `Nc1ncnc2c1ncn2C[C@@H](O)CO`: the MID was above 400 µg/mL.

Turning to `Nc1nc(O)c2c(ncn2CC(O)CO)n1` (racemic), the MID was above 400 µg/mL.

Take `O=c1ccn(CC[C@H](O)CO)c(=O)[nH]1`: the MID is above 400 µg/mL.
